Source: patent publication US4760136A, “Chartreusin derivatives and salts thereof” (Ishihara Sangyo Kaisha, Ltd., priority 1984, dated 1988)
Counter-ions that a name gives are not always drawn. Like-named read-outs stand apart in the source and are kept apart here.

Key:
P-388 leukemia cells = assay: Antitumor activity: P-388 leukemia cells inoculated intraperitoneally, drug administered intravenously, BDF1 mice; type: in vivo; settings: for response vs control in vivo at 40 mg/kg / response vs control in vivo at 80 mg/kg / response vs control in vivo at 20 mg/kg / response vs control in vivo at 50 mg/kg / response vs control in vivo at 10 mg/kg: Mus musculus, P388, iv, read-out: T/C (%) of MST; for response vs control in vivo at 20 mg/kg: dose b: 20 mg/kg × 3, i.v. on days 1, 5 and 9; for response vs control in vivo at 50 mg/kg: dose d: 50 mg/kg × 3, i.v. on days 1, 5 and 9; for response vs control in vivo at 10 mg/kg: dose a: 10 mg/kg × 3, i.v. on days 1, 5 and 9
In short: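 Drug dosing was intravenous on the first, fifth and ninth days after intraperitoneal inoculation of P-388 leukemia cells (1×10^6 per mouse) into BDF1 mice. Vehicles were physiological saline alone, or saline with small amounts of sodium carboxymethyl cellulose or Tween-80.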

[1] = Acute toxicity, intravenous (once), ddY mice; type: in vivo; settings: mouse, in vivo, formulated per Preparation Example
Source text: In Table 7 are shown acute toxicity values (LD50, mg/kg) in ddY mice in the case of intravenously administering (once) each of the compounds of this invention in the form of preparations shown in the Preparation Examples shown in Table 7.

[2] = dose c: 40 mg/kg × 3, i.v. on days 1, 5 and 9, BDF1 mice, P-388 i.p.
[3] = dose f: 80 mg/kg × 3, i.v. on days 1, 5 and 9, BDF1 mice, P-388 i.p.

Compound | response vs control in vivo at 40 mg/kg (P-388 leukemia cells; [2]) | response vs control in vivo at 80 mg/kg (P-388 leukemia cells; [3]) | LD50 ([1]; iv) | response vs control in vivo at 20 mg/kg (P-388 leukemia cells; BDF1 mice, P-388 i.p.) | also measured
COC1C(O)C(C)OC(OC2C(Oc3cccc4c(OC(=O)CCNC=O)c5c(=O)oc6ccc(C)c7c(=O)oc(c34)c5c67)OC(C)C3OC(c4cccc(Br)c4)OC32)C1O (centres unmarked) [Compound No. 54] | 144% | 208% | ≥ 80 mg/kg |  | 
COC1C(O)C(C)OC(OC2C(Oc3cccc4c(OC(=O)CN(C)C(=O)C(F)(F)F)c5c(=O)oc6ccc(C)c7c(=O)oc(c34)c5c67)OC(C)C3OC(C)(C)OC32)C1O (centres unmarked) [compound 86] |  | 136% | ≥ 100 mg/kg |  | 
COC1C(O)C(C)OC(OC2C(Oc3cccc4c(OC(=O)CCNC(=O)OCc5ccccc5)c5c(=O)oc6ccc(C)c7c(=O)oc(c34)c5c67)OC(C)C3OC(c4cccc(F)c4)OC32)C1O (centres unmarked) [compound 73] | 229% |  | ≥ 40 mg/kg | 176% | 
COC1C(O)C(C)OC(OC2C(Oc3cccc4c(OC(=O)C(C)CNC(=O)C(F)(F)F)c5c(=O)oc6ccc(C)c7c(=O)oc(c34)c5c67)OC(C)C3OC(c4ccccc4)OC32)C1O (stereo not drawn) [Compound No. 12, 6-O-(N-Trifluoroacetyl-β-Amino-Isobutyryl)-3',4'-O-Benzylidene-Chartreusin] |  |  | ≥ 40 mg/kg | 203% | T/C (%) of MST (P-388 leukemia cells; [2]): 241%
COC1C(O)C(C)OC(OC2C(Oc3cccc4c(OC(=O)CCCl)c5c(=O)oc6ccc(C)c7c(=O)oc(c34)c5c67)OC(C)C3OC(c4ccccc4)OC32)C1O (centres unmarked) [Compound No. 164] |  |  | ≥ 40 mg/kg | 198% | 
COC1C(O)C(C)OC(OC2C(Oc3cccc4c(OC(=O)CCNC=O)c5c(=O)oc6ccc(C)c7c(=O)oc(c34)c5c67)OC(C)C3OC(C)(C)OC32)C1O (stereo not drawn) [Compound No. 48, 6-O-(N-formyl-β-alanyl)-3',4'-O-isopropylidene-chartreusin] |  | 172% | ≥ 120 mg/kg |  | 
COC1C(O)C(C)OC(OC2C(Oc3cccc4c(OC(=O)CCNC(=O)C(F)(F)F)c5c(=O)oc6ccc(C)c7c(=O)oc(c34)c5c67)OC(C)C3OC(C)(C)OC32)C1O (stereo not drawn) [Compound No. 49, 6-O-(N-Trifluoroacetyl-β-Alanyl)-3',4'-O-Isopropylidene-Chartreusin] |  | 207% | ≥ 150 mg/kg |  | 
COC1C(O)C(C)OC(OC2C(Oc3cccc4c(OC(=O)CCNC=O)c5c(=O)oc6ccc(C)c7c(=O)oc(c34)c5c67)OC(C)C3OC(CCc4ccccc4)OC32)C1O (centres unmarked) [compound 83] | 144% | 208% | ≥ 80 mg/kg |  | 
COC1C(O)C(C)OC(OC2C(Oc3cccc4c(OC(=O)C(NC(=O)OCc5ccccc5)C(C)C)c5c(=O)oc6ccc(C)c7c(=O)oc(c34)c5c67)OC(C)C3OC(C)(C)OC32)C1O (centres unmarked) [compound 125] |  |  | ≥ 100 mg/kg |  | response vs control in vivo at 50 mg/kg (P-388 leukemia cells; BDF1 mice, P-388 i.p.): 140%
C/C=C/C(=O)Oc1c2cccc(OC3OC(C)C4OC5(CCCCC5)OC4C3OC3OC(C)C(O)C(OC)C3O)c2c2oc(=O)c3c(C)ccc4oc(=O)c1c2c43 (centres unmarked) [compound 221] |  |  |  |  | response vs control in vivo at 80 mg/kg (P-388 leukemia cells): 168%; LD50 [1]: ≥ 80 mg/kg
COC1C(O)C(C)OC(OC2C(Oc3cccc4c(OC(=O)CCNC(=O)CNC(=O)OCc5ccccc5)c5c(=O)oc6ccc(C)c7c(=O)oc(c34)c5c67)OC(C)C3OC(c4ccccc4)OC32)C1O (centres unmarked) [compound 75] | 197% |  | ≥ 40 mg/kg | 153% | 
CO[C@H]1[C@@H](O)[C@@H](C)O[C@H](O[C@H]2[C@H](Oc3cccc4c(OC(=O)COC(=O)c5ccccc5)c5c(=O)oc6ccc(C)c7c(=O)oc(c34)c5c67)O[C@H](C)[C@@H]3OC(C)(C)O[C@@H]32)[C@@H]1O [compound 199] |  |  | ≥ 60 mg/kg |  | response vs control in vivo at 50 mg/kg (P-388 leukemia cells; BDF1 mice, P-388 i.p.): 159%
COC1C(O)C(C)OC(OC2C(Oc3cccc4c(OC(=O)C(C)CN(C)C)c5c(=O)oc6ccc(C)c7c(=O)oc(c34)c5c67)OC(C)C3OC(c4ccccc4)OC32)C1O (stereo not drawn) [Compound No. 1, 6-O-(N,N-Dimethyl-β-Amino-Isobutyryl)-3',4'-O-Benzylidene-ChartreusinHydrochloride] | 214% |  | ≥ 40 mg/kg | 138% | 
COC1C(O)C(C)OC(OC2C(Oc3cccc4c(OC(=O)C5CC5)c5c(=O)oc6ccc(C)c7c(=O)oc(c34)c5c67)OC(C)C3OC(c4ccccc4)OC32)C1O (centres unmarked) [compound 232] |  |  | ≥ 40 mg/kg |  | response vs control in vivo at 10 mg/kg (P-388 leukemia cells; BDF1 mice, P-388 i.p.): 146%
C=CC(=O)Oc1c2cccc(O[C@@H]3O[C@H](C)[C@@H]4OC(C)(C)O[C@@H]4[C@H]3O[C@H]3O[C@H](C)[C@H](O)[C@H](OC)[C@H]3O)c2c2oc(=O)c3c(C)ccc4oc(=O)c1c2c43 [compound 197] | 144% | 171% | ≥ 80 mg/kg |  | 
COC1C(O)C(C)OC(OC2C(Oc3cccc4c(OC(=O)CC(C)C)c5c(=O)oc6ccc(C)c7c(=O)oc(c34)c5c67)OC(C)C3OC(c4cccc(Br)c4)OC32)C1O (centres unmarked) [Compound No. 163] | 156% | 227% | ≥ 80 mg/kg |  | 
CO[C@H]1[C@@H](O)[C@@H](C)O[C@H](O[C@H]2[C@H](Oc3cccc4c(OC(=O)c5ccccc5Cl)c5c(=O)oc6ccc(C)c7c(=O)oc(c34)c5c67)O[C@H](C)[C@@H]3OC(c4cccc([N+](=O)[O-])c4)O[C@@H]32)[C@@H]1O (some centres unmarked) [Compound No. 189] | 146% | 214% | ≥ 80 mg/kg |  | 
COC1C(O)C(C)OC(OC2C(Oc3cccc4c(OC(=O)C(CNC(=O)OCc5ccccc5)C(C)C)c5c(=O)oc6ccc(C)c7c(=O)oc(c34)c5c67)OC(C)C3OC(c4ccccc4)OC32)C1O (centres unmarked) [compound 70] | 181% |  | ≥ 40 mg/kg | 135% | 
CCC(CN(C)C)C(=O)Oc1c2cccc(OC3OC(C)C4OC(c5ccccc5)OC4C3OC3OC(C)C(O)C(OC)C3O)c2c2oc(=O)c3c(C)ccc4oc(=O)c1c2c43 (centres unmarked) [compound 134] |  |  | ≥ 30 mg/kg | 175% | response vs control in vivo at 10 mg/kg (P-388 leukemia cells; BDF1 mice, P-388 i.p.): 192%
COC1C(O)C(C)OC(OC2C(Oc3cccc4c(OC(=O)C(C)(C)C)c5c(=O)oc6ccc(C)c7c(=O)oc(c34)c5c67)OC(C)C3OC(c4ccccc4)OC32)C1O (centres unmarked) [Compound No. 170] |  |  | ≥ 40 mg/kg | 198% | 
COC1C(O)C(C)OC(OC2C(Oc3cccc4c(OC(=O)CCCCCNC(=O)C(F)(F)F)c5c(=O)oc6ccc(C)c7c(=O)oc(c34)c5c67)OC(C)C3OC(c4ccc(F)cc4)OC32)C1O (centres unmarked) [compound 97] |  |  | ≥ 30 mg/kg | 156% | 
COC1C(O)C(C)OC(OC2C(Oc3cccc4c(OC(=O)c5ccccc5)c5c(=O)oc6ccc(C)c7c(=O)oc(c34)c5c67)OC(C)C3OC(C)(C)OC32)C1O (centres unmarked) [compound 242] |  |  | ≥ 40 mg/kg | 137% | 
COC1C(O)C(C)OC(OC2C(Oc3cccc4c(OC(=O)CCN)c5c(=O)oc6ccc(C)c7c(=O)oc(c34)c5c67)OC(C)C3OC(C)(C)OC32)C1O (stereo not drawn) [compound 42, 6-O-(β-alanyl)-3',4'-O-isopropylidene-chartreusin hydrochloride] |  | 187% | ≥ 100 mg/kg |  | 
COC1C(O)C(C)OC(OC2C(Oc3cccc4c(OC(=O)CCCCCN)c5c(=O)oc6ccc(C)c7c(=O)oc(c34)c5c67)OC(C)C3OC(C)(C)OC32)C1O (centres unmarked) [compound 59] | 146% | 218% | ≥ 100 mg/kg |  | 
COC1C(O)C(C)OC(OC2C(Oc3cccc4c(OC(=O)C(C)CNC(=O)OCc5ccccc5)c5c(=O)oc6ccc(C)c7c(=O)oc(c34)c5c67)OC(C)C3OC(c4ccccc4)OC32)C1O (stereo not drawn) [Compound No. 69, 6-O-(N-Carbobenzyloxy-β-Amino-Isobutyryl)-3,4-O-Benzylidene-Chartreusin] | 222% |  | ≥ 40 mg/kg | 179% | 
COC1C(O)C(C)OC(OC2C(Oc3cccc4c(OC(=O)CNC(=O)OCc5ccccc5)c5c(=O)oc6ccc(C)c7c(=O)oc(c34)c5c67)OC(C)C3OC(C)(C)OC32)C1O (centres unmarked) [compound 108, 6-O-(N-carbobenzyloxyglycyl)-3',4'-O-isopropylidene-chartreusin] |  |  | ≥ 100 mg/kg |  | response vs control in vivo at 50 mg/kg (P-388 leukemia cells; BDF1 mice, P-388 i.p.): 163%
